From patent publication US20090131702A1, “METHOD FOR THE PRODUCTION OF METAL CARBOXYLATES AND THE METAL AMINOATE OR METAL HYDROXY ANALOGUE METHIONATE DERIVATIVES THEREOF, AND USE OF SAME AS GROWTH PROMOTERS IN ANIMAL FEED” (NOREL, S.A., priority 2003, published 2009)
Where two headings read alike, the source gives them in different places. Marks after values point to notes of the source that are not given here.

How the values were obtained:
[1] = Test of efficacy in piglets: production parameters, copper glycinate / formate / complex (Example 15); format: in vivo; conditions: 21-42 days, 125 ppm of copper added to base diet
Description: (§2) Control of production parameters was effected at the end of the experiment, recording the live weight, the daily growth and the consumption of feed.

[2] = broilers; for LW 21 d (live weight): day 21; for LW 42 d (live weight): day 42
[3] = broilers
Protocol: During the next 4 days, an investigation of the bioavailability of the copper was carried out. After fasting for 20 hours, the live weight per cage was recorded and the experimental feeds were supplied for 2 days, recording the consumption of feed.

[4] = Test in broilers: production parameters, copper methioninate / formate / complex (Example 13); format: in vivo, broilers of the Ross strain; conditions: for MDC (mean daily consumption) / MDG (mean daily gain) / IC (index of conversion): 25 ppm of copper added to base diet; for LW 21 d (live weight): day 21, 25 ppm of copper added to base diet; for LW 42 d (live weight): day 42, 25 ppm of copper added to base diet
Protocol: Four experimental treatments were used, comprising the same basic diet supplemented with different sources of copper:
The dose of copper was calculated taking into account the copper content of the ingredients and the copper requirements in the case of treatments T-0 to T-3.
(§1) Control of production parameters was effected at 21 and 42 days of age, recording the live weight and the consumption of feed per batch.

[5] = broilers; remark: listed apart in the source
[6] = Test in broilers: production parameters, zinc methioninate / formate / complex (Example 12); format: in vivo, broilers of the Ross strain; conditions: for MDC (mean daily consumption) / MDG (mean daily gain) / IC (index of conversion): 50 ppm of zinc added to base diet; for effect on production parameters (in words): 50 ppm of zinc, control T-0 = zinc sulfate; for LW 21 d (live weight): day 21, 50 ppm of zinc added to base diet; for LW 42 d (live weight): day 42, 50 ppm of zinc added to base diet
Description: Four experimental treatments were used, comprising the same basic diet supplemented with different sources of zinc:
as §1

[7] = piglets, 21-41 days; 150 ppm of zinc added to base diet
Protocol: 24 piglets were used (Large White*Large White×Landrace), 50% males and 50% females, weaned at 21 days of age and housed in 4 pens with 6 animals in each (3 males and 3 females).
The zinc dose was calculated taking into account the zinc content of the ingredients and the maximum permitted dose (150 ppm) in all the treatments.
The experimental period was 20 days.
as §2

[8] = piglets, 220 ppm of zinc added to base diet; for LW 28 d (live weight): day 28; for LW 42 d (live weight): day 42
Protocol: 300 piglets were used (cross of Large White and Landrace), 50% males and 50% females, weaned at 21 days of age and housed in 30 pens with 10 animals in each (5 males and 5 females).
Five experimental treatments were used, comprising the same basic diet, to which different sources of zinc are added:
The zinc dose was calculated taking into account the zinc content of the ingredients of the feed and the maximum permitted dose (250 ppm of zinc in the finished feed) in the case of treatments T-0 to T-2, and the dose with promoter effect (2000 ppm) in the case of treatment T-3.
The experimental period was 21 days.
The experimental model was a design of random blocks, with 6 replications per treatment. Each replication comprised a batch of 10 animals.
as §2

[9] = Test of efficacy in piglets: production parameters, zinc glycinate / formate / complex (Example 14); format: in vivo; conditions: 21-50 days, 130 ppm of zinc added to base diet
Description: The experimental period was 29 days.

[10] = broilers, 150 ppm of zinc added to base diet
Description: 160 one-day old broilers of the Ross strain were used (without differentiation of sexes), housed in cages in groups of 10 animals.
Control of production parameters was effected at 21 days of age, recording the live weight and the consumption of feed per batch.

[11] = Zinc concentration in the liver of piglets (Example 11); format: in vivo; conditions: for Liver zinc / Ratio Zn in liver/Zn in diet: end of 21-day experiment, 220 ppm of zinc added to base diet
Description: At the end of the experiment, one male and one female were selected at random from each batch to take a specimen of liver tissue and determine the zinc content.

[12] = broilers; for Zinc excreted / Zinc ingested / Bioavailability: 43 to 46 days of age, 50 ppm of zinc added to base diet; for zinc bioavailability (in words): 50 ppm of zinc; for Bioavailability: zinc
[13] = 0-21 days, 20 ppm of copper added to base diet
[14] = 0-21 days, 150 ppm of copper added to base diet
[15] = 0-42 days, 20 ppm of copper added to base diet
[16] = 0-42 days, 150 ppm of copper added to base diet
[17] = 21-42 days, 20 ppm of copper added to base diet
[18] = 21-42 days, 150 ppm of copper added to base diet
[19] = 20 ppm of copper added to base diet
[20] = 150 ppm of copper added to base diet
[21] = 43 to 46 days of age, 20 ppm of copper added to base diet
[22] = 43 to 46 days of age, 150 ppm of copper added to base diet
[23] = 43 to 46 days of age, 25 ppm of copper added to base diet

Molecule: NCC(=O)[O-].NCC(=O)[O-].[Cu+2] [copper glycinate]
- GLW 21-42 d (gain in live weight) [1]: 7.25 b kg
- IC (index of conversion) [1]: 1.91 b
- MDC (mean daily consumption) [1]: 660.5 g/day
- MDG (mean daily gain) [1]: 345.0 b g

Molecule: O=S(=O)([O-])[O-].[Cu+2] [copper sulfate]
- MDC (mean daily consumption) [2, 13]: 48.9 g/day
- MDG (mean daily gain) [2, 13]: 34.2 a g
- MDC (mean daily consumption) [2, 14]: 49.7 g/day
- MDG (mean daily gain) [2, 14]: 35.9 b g
- MDC (mean daily consumption) [2, 15]: 98.2 g/day
- MDG (mean daily gain) [2, 15]: 50.6 a g
- MDC (mean daily consumption) [2, 16]: 99.5 g/day
- MDG (mean daily gain) [2, 16]: 55.2 b g
- MDC (mean daily consumption) [2, 17]: 149.3 g/day
- MDG (mean daily gain) [2, 17]: 69.2 a g
- MDC (mean daily consumption) [2, 18]: 154.2 g/day
- MDG (mean daily gain) [2, 18]: 76.7 b g
- LW 21 d (live weight) [2, 19]: 716 a g
- LW 21 d (live weight) [2, 20]: 756 b g
- LW 42 d (live weight) [2, 19]: 2172 a g
- LW 42 d (live weight) [2, 20]: 2362 b g
- Copper excreted [3, 21]: 4.08^a mg
- Copper ingested [3, 21]: 7.3^a mg
- Copper excreted [3, 22]: 397.3^b mg
- Copper ingested [3, 22]: 652.4^b mg
- MDC (mean daily consumption) ([4]; 0-21 days): 45.3 g/day
- MDG (mean daily gain) ([4]; 0-21 days): 31.6 a g
- MDC (mean daily consumption) ([4]; 0-42 days): 102.7 g/day
- MDG (mean daily gain) ([4]; 0-42 days): 51.6 a g
- MDC (mean daily consumption) ([4]; 21-42 days): 160.1 g/day
- MDG (mean daily gain) ([4]; 21-42 days): 71.6 a g
- LW 21 d (live weight) [4]: 695 a g
- LW 42 d (live weight) [4]: 2200 a g
- Copper excreted [5, 23]: 20.4^a mg
- Copper ingested [5, 23]: 67.98^a mg
- GLW 21-42 d (gain in live weight) [1]: 6.5 a kg
- MDC (mean daily consumption) [1]: 650.5 g/day
- MDG (mean daily gain) [1]: 309.5 a g

Molecule: O=C[O-].O=C[O-].[Zn+2] [zinc formate, Zinc formate]
- MDC (mean daily consumption) ([6]; 0-21 days): 48.3 g/day
- MDG (mean daily gain) ([6]; 0-21 days): 35.2 b g
- MDC (mean daily consumption) ([6]; 0-42 days): 100.4 g/day
- MDG (mean daily gain) ([6]; 0-42 days): 55.0 b g
- MDC (mean daily consumption) ([6]; 21-42 days): 152.5 g/day
- MDG (mean daily gain) ([6]; 21-42 days): 74.8 b g
- effect on production parameters (in words) [6]: same effect
- LW 21 d (live weight) [6]: 740 b g
- LW 42 d (live weight) [6]: 2310 b g
- GLW 21-41 d (gain in live weight) [7]: 8.00 b kg
- MDC (mean daily consumption) [7]: 655.0 g/day
- MDG (mean daily gain) [7]: 400.0 b g
- MDC (mean daily consumption) ([8]; 21-28 days): 312.3 g/day
- MDG (mean daily gain) ([8]; 21-28 days): 268.6 B g
- MDC (mean daily consumption) ([8]; 21-42 days): 752.3 g/day
- MDG (mean daily gain) ([8]; 21-42 days): 512.6 b g
- LW 28 d (live weight) [8]: 8.76 ab kg
- LW 42 d (live weight) [8]: 14.30 b kg
- GLW 21-50 d (gain in live weight) [9]: 12.50 b kg
- MDC (mean daily consumption) [9]: 752.3 g/day
- MDG (mean daily gain) [9]: 431.0 b g
- MDC (mean daily consumption) ([10]; 0-21 days): 47.5 g/day
- MDG (mean daily gain) ([10]; 0-21 days): 37.6 b g
- LW 21 d (live weight) ([10]; day 21): 790 b g
- Liver zinc [11]: 59.21a μg/g
- Zinc excreted [12]: 7.20^b mg
- Zinc ingested [12]: 13.3^a mg
- zinc bioavailability (in words) [12]: highest bioavailability
- Bioavailability [12]: 45.8^b %

Molecule: NCC(=O)[O-].NCC(=O)[O-].[Zn+2] [zinc glycinate]
- GLW 21-50 d (gain in live weight) [9]: 12.75 b kg
- IC (index of conversion) [9]: 1.68 b
- MDC (mean daily consumption) [9]: 741.3 g/day
- MDG (mean daily gain) [9]: 439.6 b g

Molecule: [O]=[Zn] [zinc oxide]
- IC (index of conversion) ([8]; 21-28 days): 1.32 a
- MDC (mean daily consumption) ([8]; 21-28 days): 321.7 g/day
- MDG (mean daily gain) ([8]; 21-28 days): 244.5 A g
- IC (index of conversion) ([8]; 21-42 days): 1.67 a
- MDC (mean daily consumption) ([8]; 21-42 days): 795.3 g/day
- MDG (mean daily gain) ([8]; 21-42 days): 475.3 a g
- LW 28 d (live weight) [8]: 8.41 A kg
- LW 42 d (live weight) [8]: 13.11 a kg
- GLW 21-50 d (gain in live weight) [9]: 11.40 a kg
- IC (index of conversion) [9]: 2.02 a
- MDC (mean daily consumption) [9]: 795.3 g/day
- MDG (mean daily gain) [9]: 393.1 a g
- liver zinc concentration (in words) ([11]; dose of 220 ppm): lowest
- Liver zinc [11]: 47.63a μg/g
- Ratio Zn in liver/Zn in diet [11]: 19.8ab

Molecule: O=S(=O)([O-])[O-].[Zn+2] [zinc sulfate]
- MDC (mean daily consumption) ([6]; 0-21 days): 47.3 g/day
- MDG (mean daily gain) ([6]; 0-21 days): 33.6 a g
- MDC (mean daily consumption) ([6]; 0-42 days): 101.7 g/day
- MDG (mean daily gain) ([6]; 0-42 days): 53.5 a g
- MDC (mean daily consumption) ([6]; 21-42 days): 156.3 g/day
- MDG (mean daily gain) ([6]; 21-42 days): 73.6 a g
- LW 21 d (live weight) [6]: 705 a g
- LW 42 d (live weight) [6]: 2250 a g
- Zinc excreted [12]: 8.34^a mg
- Zinc ingested [12]: 12.4^a mg

Molecule: Copper butyrate
- IC (index of conversion) [2, 13]: 1.35 b
- MDC (mean daily consumption) [2, 13]: 48.9 g/day
- MDG (mean daily gain) [2, 13]: 36.2 b g
- IC (index of conversion) [2, 15]: 1.76 b
- MDC (mean daily consumption) [2, 15]: 97.2 g/day
- MDG (mean daily gain) [2, 15]: 55.1 b g
- IC (index of conversion) [2, 17]: 1.94 b
- MDC (mean daily consumption) [2, 17]: 147.2 g/day
- MDG (mean daily gain) [2, 17]: 75.9 b g
- LW 21 d (live weight) [2, 19]: 763 b g
- LW 42 d (live weight) [2, 19]: 2358 b g
- Copper excreted [3, 21]: 2.99^a mg
- Copper ingested [3, 21]: 7.3^a mg
- copper bioavailability (in words) ([3]; 20 ppm of copper): highest bioavailability
- Bioavailability ([3]; copper, 43 to 46 days of age, 20 ppm of copper added to base diet): 59.09^b %

Molecule: Zinc butyrate
- IC (index of conversion) ([8]; 21-28 days): 1.09 b
- MDC (mean daily consumption) ([8]; 21-28 days): 286.3 g/day
- MDG (mean daily gain) ([8]; 21-28 days): 262.9 ab g
- IC (index of conversion) ([8]; 21-42 days): 1.45 b
- MDC (mean daily consumption) ([8]; 21-42 days): 741.3 g/day
- MDG (mean daily gain) ([8]; 21-42 days): 509.6 b g
- LW 28 d (live weight) [8]: 8.99 B kg
- LW 42 d (live weight) [8]: 14.15 b kg
- ratio of zinc in the liver to zinc in the diet (in words) ([11]; 220 ppm of zinc): highest ratio
- Liver zinc [11]: 56.3a μg/g
- Ratio Zn in liver/Zn in diet [11]: 22.3bc

Molecule: copper methioninate
- IC (index of conversion) ([4]; 0-21 days): 1.36 b
- MDC (mean daily consumption) ([4]; 0-21 days): 47.1 g/day
- MDG (mean daily gain) ([4]; 0-21 days): 34.7 b g
- IC (index of conversion) ([4]; 0-42 days): 1.86 b
- MDC (mean daily consumption) ([4]; 0-42 days): 100.5 g/day
- MDG (mean daily gain) ([4]; 0-42 days): 54.0 b g
- IC (index of conversion) ([4]; 21-42 days): 2.08 b
- MDC (mean daily consumption) ([4]; 21-42 days): 154.0 g/day
- MDG (mean daily gain) ([4]; 21-42 days): 73.8 b g
- effect on production parameters (in words) ([4]; 25 ppm of copper, control T-0 = copper sulfate): same effect
- LW 21 d (live weight) [4]: 750 b g
- LW 42 d (live weight) [4]: 2300 b g
- Copper excreted [5, 23]: 29.5^b mg
- Copper ingested [5, 23]: 69.3^a mg
- copper bioavailability (in words) ([5]; 25 ppm of copper): highest bioavailability
- Bioavailability ([5]; copper, 43 to 46 days of age, 25 ppm of copper added to base diet): 42.6^b %

Molecule: zinc methioninate
- IC (index of conversion) ([6]; 0-21 days): 1.35 b
- MDC (mean daily consumption) ([6]; 0-21 days): 48.1 g/day
- MDG (mean daily gain) ([6]; 0-21 days): 35.7 b g
- IC (index of conversion) ([6]; 0-42 days): 1.82 b
- MDC (mean daily consumption) ([6]; 0-42 days): 101.7 g/day
- MDG (mean daily gain) ([6]; 0-42 days): 55.7 b g
- IC (index of conversion) ([6]; 21-42 days): 2.05 b
- MDC (mean daily consumption) ([6]; 21-42 days): 155.2 g/day
- MDG (mean daily gain) ([6]; 21-42 days): 75.7 b g
- effect on production parameters (in words) [6]: same effect
- LW 21 d (live weight) [6]: 750 b g
- LW 42 d (live weight) [6]: 2340 b g
- Zinc excreted [12]: 7.35^b mg
- Zinc ingested [12]: 12.6^a mg
- zinc bioavailability (in words) [12]: highest bioavailability
- Bioavailability [12]: 42.6^b %
